Patent US9580430B2, “9H-pyrimido[4,5-B]indoles and related analogs as BET bromodomain inhibitors” (THE REGENTS OF THE UNIVERSITY OF MICHIGAN, priority 2014, dated 2017)
Read-outs that look alike come from different tables or passages of the source.

Experiments:
recombinant BRD4 BD1 = target: T1, recombinant BRD4 BD1 (Homo sapiens, UniProt O60885); test: Competitive fluorescence-polarization (FP) binding assay, BRD4 BD1; details: for Ki: read-out: Binding affinities (FP) BRD4BD1 Ki; for IC50 (nM) BRD4 BD1: probe 1.5 nM
T1 construct: for recombinant BRD4 BD1 and BRD4 BD2 proteins
Method in brief: (§1)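 Buffer: 100 mM potassium phosphate, pH 6.5, 0.01% Triton X-100; compounds added in buffer with 40% ethylene glycol to preformed complex of fluorescent probe with BRD4 BD1 (10 nM final) or BD2 (6 nM final). After 30 min at room temperature, polarization read. IC50 from nonlinear fits of competition curves, with Ki.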

recombinant BRD4 BD2 = target: T2, recombinant BRD4 BD2 (Homo sapiens, UniProt O60885); test: Competitive fluorescence-polarization (FP) binding assay, BRD4 BD2; details: for Ki: read-out: Binding affinities (FP) BRD4BD2 Ki; for IC50 (nM) BRD4 BD2: probe 1.5 nM
T2 construct: for recombinant BRD4 BD1 and BRD4 BD2 proteins
Method in brief: as §1

MDA-MB-436 = test: Cell growth inhibition, MDA-MB-436 breast cancer cells (WST-8); format: cell-based; details: Homo sapiens, 4 days
Method in brief: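 IC50 was computed from WST-8-based cell counting in MDA-MB-436 cells, with absorbance read at 450 nm.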

LNCaP = test: Cell growth inhibition, LNCaP prostate cancer cells (Cell-Titer GLO); format: cell-based; details: Homo sapiens, read-out: Cellular data LNCaP IC50
MOLM-13 = test: Cell growth inhibition, MOLM-13 leukemia cells (CellTiter-Glo); format: cell-based; details: Homo sapiens, MOLM-13, 96 h; 4 days; read-out: IC50 (nM) MOLM-13 Cell Line (CellTiter-Glo assay)
Method in brief: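 Luminescent ATP-based viability (CellTiter-Glo, 10-20 min at room temperature) in compound-treated MOLM-13 cells; the half-maximal inhibitory concentration was calculated from the readout.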

[1] = system: VCaP prostate cancer cells; test: Cell growth inhibition, VCaP prostate cancer cells (Cell-Titer GLO); format: cell-based; details: Homo sapiens, VCaP; 96 h incubation; read-out: IC50 (nM) VCaP Cell Line (CellTiter-Glo assay)
Method: For prostate cancer cell lines, VCaP prostate cancer cells were grown in DMEM with Glutamax (Gibco) supplemented with 10% FBS (Invitrogen) in 5% CO2 cell culture incubator. All cell lines were tested and found to be free of mycoplasma contamination. Cells were seeded in 96-well plates at 2,000-10,000 cells per well (optimum density for growth) in a total volume of […] media containing 10% FBS. Serially diluted compounds in […] media were added to the cells 12 h later. […] The values were normalized and IC50 was calculated using GraphPad Prism software.
Cells were seeded in 96-well plates at 2000-10,000 cells/well (optimum density for growth) in a total volume of 100 μl media containing 10% FBS. Serially diluted compounds in 100 μl media were added to the cells 12 h later. Following 96 h. incubation, cell viability was assessed by Cell-Titer GLO (Promega). The values were normalized and IC50 was calculated using GraphPad Prism software. […] After 12 days cells were fixed with methanol, stained with crystal violet and photographed. For colorimetric assays, the stained wells were treated with 500 μl 10% acetic acid and the absorbance was measured at 560 nm using a spectrophotometer.

[2] = FP competitive binding, BRD4 BD1, read-out: Binding affinities (FP) BRD4BD1 IC50
[3] = FP competitive binding, BRD4 BD1
[4] = FP competitive binding, BRD4 BD2, read-out: Binding affinities (FP) BRD4BD2 IC50
[5] = FP competitive binding, BRD4 BD2
[6] = 96 h, MDA-MB-436 cells, read-out: Cellular data MDA-MB-436 IC50
[7] = competitive FP assay, protein 10 nM, probe […], read-out: IC50 (nM) BRD4 BD1
[8] = competitive FP assay, protein 6 nM, probe […], read-out: IC50 (nM) BRD4 BD2
[9] = MDA-MB-436, 96 h, read-out: IC50 (nM) MDA-MB-436 Cell Line (WST assay)

Row | IC50 (recombinant BRD4 BD1; [2]) [nM] | Ki (recombinant BRD4 BD1; [3]) [nM] | IC50 (recombinant BRD4 BD2; [4]) [nM] | Ki (recombinant BRD4 BD2; [5]) [nM] | IC50 (MDA-MB-436; [6]) [nM] | IC50 (LNCaP) [nM] | IC50 (recombinant BRD4 BD1; [7]) [nM] | IC50 (recombinant BRD4 BD2; [8]) [nM] | IC50 (MOLM-13) [nM] | IC50 (MDA-MB-436; [9]) [nM] | IC50 [1] [nM] | SMILES
1 | 2.4 | < 1 | 2.2 | < 1 | 57 | 130 |  |  |  |  |  | COc1cc2c(cc1-c1c(C)noc1C)[nH]c1nc(CS(C)(=O)=O)nc(Nc3cc(C4CC4)nn3C)c12 [Cpd. No. 289, N-(3-cyclopropyl-1-methyl-1H-pyrazol-5-yl)-7-(3,5-dimethylisoxazol-4-yl)-6-methoxy-2-((methylsulfonyl)methyl)-9H-pyrimido[4,5-b]indol-4-amine]
2 |  |  |  |  |  |  | 4.5 | 1.2 | 4.3 | 11.3 | 23.4 | COc1cc2c(cc1-c1c(C)noc1C)[nH]c1nc(C)nc(Nc3c4c(nn3C(C)C)CCC4)c12 [Cpd. No. 137, 7-(3,5-Dimethylisoxazol-4-yl)-N-(2-isopropyl-2,4,5,6-tetrahydrocyclopenta[c]pyrazol-3-yl)-6-methoxy-2-methyl-9H-pyrimido[4,5-b]indol-4-amine]
3 | 4.8 | < 1 | 4.5 | < 1 | 19 | 12 |  |  |  |  |  | CCn1nc(C2CC2)cc1Nc1nc(N)nc2[nH]c3cc(-c4c(C)noc4C)c(OC)cc3c12 [Cpd. No. 290, N4-(3-cyclopropyl-1-ethyl-1H-pyrazol-5-yl)-7-(3,5-dimethylisoxazol-4-yl)-6-methoxy-9H-pyrimido[4,5-b]indole-2,4-diamine]
4 |  |  |  |  |  |  | 4.6 | 1.1 | 1.6 | 13.6 | 19.3 | CCn1nc2c(c1Nc1nc(C)nc3[nH]c4cc(-c5c(C)noc5C)c(OC)cc4c13)CCC2 [Cpd. No. 141, 7-(3,5-Dimethylisoxazol-4-yl)-N-(2-ethyl-2,4,5,6-tetrahydrocyclopenta[c]pyrazol-3-yl)-6-methoxy-2-methyl-9H-pyrimido[4,5-b]indol-4-amine]
5 | 5.2 | 1.5 | 4.9 | 1 | 37 | 20 |  |  |  |  |  | COc1cc2c(cc1-c1c(C)noc1C)[nH]c1nc(N)nc(Nc3cc(C4CC4)nn3C3CC3)c12 [Cpd. No. 291, N4-(1,3-dicyclopropyl-1H-pyrazol-5-yl)-7-(3,5-dimethylisoxazol-4-yl)-6-methoxy-9H-pyrimido[4,5-b]indole-2,4-diamine]
6 | 6.1 | 1.3 | 0.5 | 1 | 33 | 22 |  |  |  |  |  | COc1cc2c(cc1-c1c(C)noc1C)[nH]c1nc(C)nc(Nc3cc(C4CC4)nn3CC3COCCO3)c12 (stereo not drawn) [Cpd. No. 282, N-(1-((1,4-dioxan-2-yl)methyl)-3-cyclopropyl-1H-pyrazol-5-yl)-7-(3,5-dimethylisoxazol-4-yl)-6-methoxy-2-methyl-9H-pyrimido[4,5-b]indol-4-amine]
7 | 16 | 3.8 | 18 | 4.3 | 130 | 59 |  |  |  |  |  | COc1cc2c([nH]c3nc(C)nc(Nc4cc(C5CC5)nn4C)c32)c(F)c1-c1c(C)noc1C [Cpd. No. 307, N-(3-cyclopropyl-1-methyl-1H-pyrazol-5-yl)-7-(3,5-dimethylisoxazol-4-yl)-8-fluoro-6-methoxy-2-methyl-9H-pyrimido[4,5-b]indol-4-amine]
8 | > 5000 |  | 850 | 342 | 1190 | 1160 |  |  |  |  |  | COc1c(-c2c(C)noc2C)cc2[nH]c3nc(C)nc(Nc4cc(C5CC5)nn4C)c3c2c1F [Cpd. No. 305]
9 | 23 | 5 | 25 | 5.3 | 181 | 106 |  |  |  |  |  | COc1cc2c([nH]c3nc(C)nc(N(C)c4cc(C5CC5)nn4C)c32)c(F)c1-c1c(C)noc1C [Cpd. No. 308, N-(3-cyclopropyl-1-methyl-1H-pyrazol-5-yl)-7-(3,5-dimethylisoxazol-4-yl)-8-fluoro-6-methoxy-N,2-dimethyl-9H-pyrimido[4,5-b]indol-4-amine]
10 | 199 | 68 | 214 | 67 | 646 | 674 |  |  |  |  |  | COc1nc2c(cc1-c1c(C)noc1C)[nH]c1nc(C)nc(Nc3cc(C4CC4)nn3C)c12 [compound 322, N-(3-cyclopropyl-1-methyl-1H-pyrazol-5-yl)-7-(3,5-dimethylisoxazol-4-yl)-6-methoxy-2-methyl-9H-pyrido[2′,3′:4,5]pyrrolo[2,3-d] pyrimidin-4-amine]
11 | 129 | 30 | 43 | 10 | 67 | 534 |  |  |  |  |  | COc1c(-c2c(C)noc2C)cc2[nH]c3nc(C)nc(N(C)c4cc(C5CC5)nn4C)c3c2c1F [Cpd. No. 306, N-(3-cyclopropyl-1-methyl-1H-pyrazol-5-yl)-7-(3,5-dimethylisoxazol-4-yl)-5-fluoro-6-methoxy-N,2-dimethyl-9H-pyrimido[4,5-b]indol-4-amine]
12 | 6.1 | 2 | 3.6 | 5.7 | 351 | 116 |  |  |  |  |  | COc1cc2c(cc1-c1c(C)noc1C)[nH]c1nc(C)nc(Nc3cc(C4CC4)nn3C[C@H](O)CO)c12 [Cpd. No. 281]
13 | 4.9 | < 1 | 1.6 | < 1 | 13 | 37 |  |  |  |  |  | COCCOCc1nc(Nc2cc(C3CC3)nn2C)c2c(n1)[nH]c1cc(-c3c(C)noc3C)c(OC)cc12 [Cpd. No. 288, N-(3-cyclopropyl-1-methyl-1H-pyrazol-5-yl)-7-(3,5-dimethylisoxazol-4-yl)-6-methoxy-2-((2-methoxyethoxy)methyl)-9H-pyrimido[4,5-b]indol-4-amine]
14 | 4.5 | 0.6 | 5 | 0.9 | 19 | 12 |  |  |  |  |  | COc1cc2c(cc1-c1c(C)noc1C)[nH]c1nc(C)nc(Nc3cc(C4CC4)nn3C3CCOCC3)c12 [Cpd. No. 283, N-(3-cyclopropyl-1-(tetrahydro-2H-pyran-4-yl)-1H-pyrazol-5-yl)-7-(3,5-dimethylisoxazol-4-yl)-6-methoxy-2-methyl-9H-pyrimido[4,5-b]indol-4-amine]
15 | 18 | 4.1 | 40 | 13 | 141 | 136 |  |  |  |  |  | COc1cc2c([nH]c3ccnc(Nc4cc(C5CC5)nn4C)c32)c(F)c1-c1c(C)noc1C [Cpd. No. 309, N-(3-cyclopropyl-1-methyl-1H-pyrazol-5-yl)-7-(3,5-dimethylisoxazol-4-yl)-6-fluoro-8-methoxy-5H-pyrido[4,3-b]indol-1-amine]
16 | 2 | < 1 | 2.3 | < 1 | 12 | 7 |  |  |  |  |  | COc1cc2c(cc1-c1c(C)noc1C)[nH]c1nc(N)nc(Nc3c4c(nn3C(C)C)CCC4)c12 [Cpd. No. 292, 7-(3,5-dimethylisoxazol-4-yl)-N4-(2-isopropyl-2,4,5,6-tetrahydrocyclopenta[c]pyrazol-3-yl)-6-methoxy-9H-pyrimido[4,5-b]indole-2,4-diamine]
17 | 3.1 | < 1 | 1.4 | < 1 | 58 | 81 |  |  |  |  |  | COCCc1nc(Nc2cc(C3CC3)nn2C)c2c(n1)[nH]c1cc(-c3c(C)noc3C)c(OC)cc12 [Cpd. No. 287, N-(3-cyclopropyl-1-methyl-1H-pyrazol-5-yl)-7-(3,5-dimethylisoxazol-4-yl)-6-methoxy-2-(2-methoxyethyl)-9H-pyrimido[4,5-b]indol-4-amine]
